ChEMBL document CHEMBL1201862, “PubChem BioAssay data set” (2004)
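Results reflect a 48-hour exposure of cells in 96-well plates to compound at five concentrations. GI50 = concentration required for 50% inhibition of growth.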 Active and inactive are the calls of the source. Cut-off read from the data, not from the text of the source: active = GI50 up to about 1.1 µM and inactive = higher.

Columns and labels:
Experiment in all cases: NCI tumour cell line growth inhibition, 48 h
OVCAR-5 = test system: OVCAR-5
LOX IMVI = test system: LOX IMVI
SK-MEL-28 = test system: SK-MEL-28
UO-31 = test system: UO-31
NCI-H23 = test system: NCI-H23
SNB-75 = test system: SNB-75
TK-10 = test system: TK-10
M14 = test system: M14
MCF7 = test system: MCF7
NCI/ADR-RES = test system: NCI/ADR-RES
786-0 = test system: 786-0
SNB-19 = test system: SNB-19
NCI-H226 = test system: NCI-H226
SR = test system: SR
HL-60 = test system: HL-60
Malme-3M = test system: Malme-3M
KM12 = test system: KM12
RPMI-8226 = test system: RPMI-8226
UACC-62 = test system: UACC-62
HCC 2998 = test system: HCC 2998
U-251 = test system: U-251
NCI-H522 = test system: NCI-H522
OVCAR-3 = test system: OVCAR-3
UACC-257 = test system: UACC-257
MDA-MB-435 = test system: MDA-MB-435
DU-145 = test system: DU-145
SK-MEL-5 = test system: SK-MEL-5
SF-295 = test system: SF-295
A549 = test system: A549
NCI-H460 = test system: NCI-H460
ACHN = test system: ACHN
SW-620 = test system: SW-620
IGROV-1 = test system: IGROV-1
SN12C = test system: SN12C
RXF 393 = test system: RXF 393
SF-268 = test system: SF-268
OVCAR-8 = test system: OVCAR-8
BT-549 = test system: BT-549
SF-539 = test system: SF-539
T47D = test system: T47D
HOP-62 = test system: HOP-62
COLO 205 = test system: COLO 205
Hs-578T = test system: Hs-578T
SK-MEL-2 = test system: SK-MEL-2
HCT-116 = test system: HCT-116
HT-29 = test system: HT-29
EKVX = test system: EKVX
MOLT-4 = test system: MOLT-4
CCRF-CEM = test system: CCRF-CEM
OVCAR-4 = test system: OVCAR-4
K562 = test system: K562
PC-3 = test system: PC-3
MDA-N = test system: MDA-N
CAKI-1 = test system: CAKI-1
MDA-MB-231 = test system: MDA-MB-231
SK-OV-3 = test system: SK-OV-3
HCT-15 = test system: HCT-15
HOP-92 = test system: HOP-92

`CN1CCN(CN2C(=O)C3C4C=CC(C3C2=O)C2C(=O)N(CN3CCN(C)CC3)C(=O)C42)CC1` (stereo not drawn) was tested. Which GI50 (OVCAR-5) did it give?
The GI50 was > 100 µM (inactive).

What about the GI50 (LOX IMVI) of the same molecule?
The GI50 was 24.8 µM (inactive).

And the GI50 (SK-MEL-28)?
Its GI50 is > 42.9 µM (inactive).

And the GI50 (UO-31)?
The GI50 was > 87.3 µM (inactive).

What about the GI50 (NCI-H23) of the same molecule?
The GI50 was > 49.8 µM (inactive).

And the GI50 (SNB-75)?
Its GI50 is > 100 µM (inactive).

And the GI50 (TK-10)?
Its GI50 is > 70.3 µM (inactive).

And the GI50 (M14)?
Its GI50 is > 51.3 µM (inactive).

What about the GI50 (MCF7) of the same molecule?
The GI50 was 27.2 µM (inactive).

And the GI50 (NCI/ADR-RES)?
The GI50 was > 60.4 µM (inactive).

And the GI50 (786-0)?
Its GI50 is 54 µM (inactive).

And the GI50 (SNB-19)?
The GI50 was > 63.1 µM (inactive).

And the GI50 (NCI-H226)?
The GI50 was > 87.1 µM (inactive).

And the GI50 (SR)?
Its GI50 is 32.4 µM (inactive).

And the GI50 (HL-60)?
Its GI50 is 20.5 µM (inactive).

And the GI50 (Malme-3M)?
Its GI50 is > 55.3 µM (inactive).

And the GI50 (KM12)?
Its GI50 is 56.5 µM (inactive).

What about the GI50 (RPMI-8226) of the same molecule?
Its GI50 is 20.7 µM (inactive).

And the GI50 (UACC-62)?
Its GI50 is 35 µM (inactive).

What about the GI50 (HCC 2998) of the same molecule?
The GI50 was > 57.4 µM (inactive).

What about the GI50 (U-251) of the same molecule?
Its GI50 is > 54.5 µM (inactive).

What about the GI50 (NCI-H522) of the same molecule?
The GI50 was > 42.1 µM (inactive).

What about the GI50 (OVCAR-3) of the same molecule?
The GI50 was > 59.6 µM (inactive).

And the GI50 (UACC-257)?
Its GI50 is > 75.2 µM (inactive).

And the GI50 (MDA-MB-435)?
Its GI50 is > 74.6 µM (inactive).

What about the GI50 (DU-145) of the same molecule?
Its GI50 is 17.8 µM (inactive).

What about the GI50 (SK-MEL-5) of the same molecule?
The GI50 was 5.55 µM (inactive).

And the GI50 (SF-295)?
The GI50 was > 82.4 µM (inactive).

And the GI50 (A549)?
The GI50 was > 10 µM (inactive).

And the GI50 (NCI-H460)?
The GI50 was > 53.8 µM (inactive).

What about the GI50 (ACHN) of the same molecule?
The GI50 was > 64.4 µM (inactive).

What about the GI50 (SW-620) of the same molecule?
The GI50 was 4.97 µM (inactive).

What about the GI50 (IGROV-1) of the same molecule?
Its GI50 is 50.6 µM (inactive).

What about the GI50 (SN12C) of the same molecule?
The GI50 was > 58.9 µM (inactive).

And the GI50 (RXF 393)?
The GI50 was 27 µM (inactive).

And the GI50 (SF-268)?
Its GI50 is > 62.1 µM (inactive).

And the GI50 (OVCAR-8)?
Its GI50 is > 100 µM (inactive).

And the GI50 (BT-549)?
The GI50 was 52.2 µM (inactive).

What about the GI50 (SF-539) of the same molecule?
Its GI50 is > 49.3 µM (inactive).

And the GI50 (T47D)?
Its GI50 is > 68.4 µM (inactive).

What about the GI50 (HOP-62) of the same molecule?
Its GI50 is > 54.1 µM (inactive).

What about the GI50 (COLO 205) of the same molecule?
The GI50 was 54.6 µM (inactive).

What about the GI50 (Hs-578T) of the same molecule?
The GI50 was > 100 µM (inactive).

What about the GI50 (SK-MEL-2) of the same molecule?
Its GI50 is > 100 µM (inactive).

What about the GI50 (HCT-116) of the same molecule?
Its GI50 is 36.6 µM (inactive).

What about the GI50 (HT-29) of the same molecule?
Its GI50 is 22.5 µM (inactive).

And the GI50 (EKVX)?
Its GI50 is > 100 µM (inactive).

And the GI50 (MOLT-4)?
Its GI50 is 36.9 µM (inactive).

What about the GI50 (CCRF-CEM) of the same molecule?
The GI50 was 28.6 µM (inactive).

And the GI50 (OVCAR-4)?
Its GI50 is > 100 µM (inactive).

And the GI50 (K562)?
The GI50 was 45.7 µM (inactive).

What about the GI50 (PC-3) of the same molecule?
Its GI50 is > 84.5 µM (inactive).

And the GI50 (MDA-N)?
The GI50 was > 57.3 µM (inactive).

What about the GI50 (CAKI-1) of the same molecule?
The GI50 was 38.1 µM (inactive).

And the GI50 (MDA-MB-231)?
The GI50 was > 73.6 µM (inactive).

What about the GI50 (SK-OV-3) of the same molecule?
The GI50 was > 100 µM (inactive).

What about the GI50 (HCT-15) of the same molecule?
The GI50 was 34 µM.

And the GI50 (HOP-92)?
Its GI50 is > 100 µM (inactive).
